Test results as given in US10590106B2, “Certain chemical entities, compositions, and methods” (NeuPharma, Inc., priority 2012, dated 2020).

Key:
BRAF = BRAF (Homo sapiens (Human), UniProt P15056); experiment: Inhibitory activity against kinase BRAF, Z'-LYTE method (Invitrogen); format: biochemical; conditions: 1 μM compound
Method: Inhibitory activities Inhibitory activities of compounds against BRAF, and BRAF V600E were measured by Invitrogen using Z′-LYTE® Method as briefly described in the following. 4× Test compounds are dissolved in 1% DMSO. […] ATP solutions are diluted to a 4×ATP working concentration in Kinase Buffer (50 mM HEPES pH 7.5, 0.01% BRIJ-35, 10 mM MgCl2, 1 mM EGTA). Reaction started by 30-second shaking of mixture consisting of 2.5 μL 4× test compound, […] and 2.5 μL 4×ATP Solution on Bar-coded Corning, low volume NBS, black 384-well plate (Corning Cat. #3676). Then the mixture was incubated for 60-minute at room temperature for the kinase reaction, followed by addition of 5 μL of a 1:1024 dilution of development reagent A and 30-second plate shake. The mixture was then incubated for another 60-minute at room temperature for development reaction. Fluorescence was read by plate reader. IC50 was calculated by plotting the concentration of compound vs the percentage of inhibition in treated wells using GraphPad Prism 5.
Table 2 and 3 show % inhibition at 1 μM of several compounds of the invention against BRAF and BRAF V600E, respectively, using Z′-LYTE® method.

BRAF V600E = BRAF V600E (Homo sapiens (Human), UniProt P15056, V600E); experiment: Inhibitory activity against kinase BRAF V600E, Z'-LYTE method (Invitrogen); format: biochemical; conditions: for inhibition at 1 µM: 1 μM compound, read-out: Inhibition (% inhibition at 1 μM) against BRAF V600E
Chain of BRAF V600E (P15056 whole entry V600E): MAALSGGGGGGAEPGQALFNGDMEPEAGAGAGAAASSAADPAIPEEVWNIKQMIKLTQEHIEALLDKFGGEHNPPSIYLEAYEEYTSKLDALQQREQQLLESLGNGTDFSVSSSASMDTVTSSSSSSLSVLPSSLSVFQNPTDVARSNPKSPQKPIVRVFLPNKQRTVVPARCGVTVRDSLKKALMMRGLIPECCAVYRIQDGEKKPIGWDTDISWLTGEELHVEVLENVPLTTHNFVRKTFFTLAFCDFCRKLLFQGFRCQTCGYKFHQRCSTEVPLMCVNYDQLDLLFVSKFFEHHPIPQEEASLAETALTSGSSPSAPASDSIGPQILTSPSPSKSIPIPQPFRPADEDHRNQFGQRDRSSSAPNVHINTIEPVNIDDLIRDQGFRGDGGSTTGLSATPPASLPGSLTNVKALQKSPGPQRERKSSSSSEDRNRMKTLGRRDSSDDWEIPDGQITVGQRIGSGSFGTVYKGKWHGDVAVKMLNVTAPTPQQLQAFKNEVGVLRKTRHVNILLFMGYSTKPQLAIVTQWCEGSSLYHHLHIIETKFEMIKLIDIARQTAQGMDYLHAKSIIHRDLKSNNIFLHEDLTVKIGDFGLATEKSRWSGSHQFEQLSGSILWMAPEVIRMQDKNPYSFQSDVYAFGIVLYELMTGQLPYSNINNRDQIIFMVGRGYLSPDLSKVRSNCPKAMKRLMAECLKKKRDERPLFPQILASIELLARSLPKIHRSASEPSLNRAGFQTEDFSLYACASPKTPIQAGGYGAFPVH
Outline: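 FRET-based Z′-LYTE peptide-phosphorylation assay in 50 mM HEPES pH 7.5, 0.01% BRIJ-35, 10 mM MgCl2, 1 mM EGTA; kinase reaction 60 min at room temperature, then 60 min development before fluorescence read. IC50 from concentration vs % inhibition; single-point % inhibition tested at 1 μM.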

A375 cells = experiment: Inhibition of cancer cell growth, MTT or MTS assay, A375; format: cell-based; conditions: Homo sapiens, A-375; 72 h incubation
Outline: (§1)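 Cells in RPMI 1640 with 10% FBS were seeded at ~2000 (A375) or 4000 (A549, Colo205) per well, grown 24 h, then exposed to compound 72 h at 1% final DMSO. Read-out by MTT (570 nm) or MTS (490 nm). IC50 from concentration vs percent inhibition, triplicates.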

KDR (VEGFR2) = KDR (VEGFR2) (Homo sapiens (Human), UniProt P35968); experiment: Inhibitory activity against kinase KDR, Z'-LYTE method (Invitrogen); format: biochemical; conditions: for inhibition at 1 µM: 1 μM compound, read-out: Inhibition (% inhibition at 1 μM) against KDR
Chain of KDR (VEGFR2) (P35968 20-1356): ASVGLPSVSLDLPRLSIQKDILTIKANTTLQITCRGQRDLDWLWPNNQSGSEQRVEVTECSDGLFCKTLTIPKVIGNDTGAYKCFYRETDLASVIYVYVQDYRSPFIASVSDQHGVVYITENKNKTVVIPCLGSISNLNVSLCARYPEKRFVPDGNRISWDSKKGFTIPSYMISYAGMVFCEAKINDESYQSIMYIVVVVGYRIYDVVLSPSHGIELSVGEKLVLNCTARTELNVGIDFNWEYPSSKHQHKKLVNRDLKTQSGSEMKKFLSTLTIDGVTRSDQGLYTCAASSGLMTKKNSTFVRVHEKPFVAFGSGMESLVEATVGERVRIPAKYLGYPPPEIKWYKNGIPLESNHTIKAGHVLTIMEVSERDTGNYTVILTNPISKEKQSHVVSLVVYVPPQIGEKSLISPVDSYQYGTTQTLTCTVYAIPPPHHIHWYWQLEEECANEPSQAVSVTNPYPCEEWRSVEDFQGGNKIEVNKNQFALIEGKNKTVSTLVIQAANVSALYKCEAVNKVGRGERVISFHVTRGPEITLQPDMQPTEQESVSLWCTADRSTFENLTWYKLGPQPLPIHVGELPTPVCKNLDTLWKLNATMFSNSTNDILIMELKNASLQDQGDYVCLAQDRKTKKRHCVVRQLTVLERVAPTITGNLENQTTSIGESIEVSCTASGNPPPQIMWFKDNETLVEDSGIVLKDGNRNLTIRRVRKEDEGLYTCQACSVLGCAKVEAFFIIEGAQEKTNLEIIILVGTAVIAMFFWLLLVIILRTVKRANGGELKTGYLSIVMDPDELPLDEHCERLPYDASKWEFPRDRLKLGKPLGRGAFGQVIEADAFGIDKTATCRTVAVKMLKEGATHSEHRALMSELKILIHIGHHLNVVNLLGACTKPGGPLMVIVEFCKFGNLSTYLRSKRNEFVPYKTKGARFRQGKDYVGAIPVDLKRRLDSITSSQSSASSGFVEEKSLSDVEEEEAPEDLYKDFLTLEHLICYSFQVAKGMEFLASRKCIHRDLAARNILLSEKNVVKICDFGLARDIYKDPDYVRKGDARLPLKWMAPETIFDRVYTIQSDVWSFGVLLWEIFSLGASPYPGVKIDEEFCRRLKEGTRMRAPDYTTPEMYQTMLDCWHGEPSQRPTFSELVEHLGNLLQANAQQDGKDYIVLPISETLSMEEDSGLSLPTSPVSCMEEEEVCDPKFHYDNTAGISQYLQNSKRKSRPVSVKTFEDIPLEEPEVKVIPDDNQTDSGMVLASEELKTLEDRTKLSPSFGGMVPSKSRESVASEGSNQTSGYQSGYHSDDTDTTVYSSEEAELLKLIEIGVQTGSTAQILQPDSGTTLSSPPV
Outline: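 Human KDR (VEGFR2) kinase inhibition was measured with Invitrogen's Z′-LYTE® method. A 2× mixture of KDR and Tyr 01 peptide is made in 50 mM HEPES pH 7.5, 0.01% BRIJ-35, 10 mM MgCl2, 1 mM EGTA. Each 10 μL reaction holds 0.5-11.7 ng enzyme and 2 μM Tyr 01. It incubates for 1 hour, then 5 μL of Development Reagent B diluted 1:256 is added.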

A549 cells = experiment: Inhibition of cancer cell growth, MTT or MTS assay, A549; format: cell-based; conditions: Homo sapiens, 72 h incubation
Outline: as §1

Chain of BRAF (P15056 whole entry): as the sequence (P15056 whole entry V600E) above, with E600V counted along it

| Structure (SMILES) | inhibition at 1 µM (BRAF) | inhibition at 1 µM (BRAF V600E) | IC50 (A375 cells) | inhibition at 1 µM (KDR (VEGFR2)) | IC50 (BRAF V600E) | IC50 (A549 cells) | IC50 (KDR (VEGFR2)) |
| --- | --- | --- | --- | --- | --- | --- | --- |
| O=C(Nc1cccc(F)c1)Nc1cccc(Oc2ccc3nccnc3c2)c1 [Compound C002, 1-(3-fluorophenyl)-3-(3-(quinoxalin-6-yloxy)phenyl)urea] | 70 to 89% | 70 to 89% | > 5 µM | 70 to 89% |  |  |  |
| O=C(Nc1cccc(Oc2ccc3nccnc3c2)c1)Nc1cccc(C(F)(F)F)c1 [Compound C003, 1-(3-(quinoxalin-6-yloxy)phenyl)-3-(3-(trifluoromethyl)phenyl)urea] | < 70% | > 89% | > 5 µM | > 89% | > 0.1 µM | 2 to 5 µM | < 0.1 µM |
| O=C(Nc1ccc(F)cc1)Nc1cccc(Oc2ccc3ncc(N4CCOCC4)nc3c2)c1 [Compound C043, 1-(4-fluorophenyl)-3-(3-((3-morpholinoquinoxalin-6-yl)oxy)phenyl)urea] | 70 to 89% | > 89% |  | > 89% |  | > 5 µM |  |
| O=C(Nc1cccc(Oc2ccc3ncc(N4CCOCC4)nc3c2)c1)Nc1ccc(F)c(F)c1 [Compound C044, 1-(3,4-difluorophenyl)-3-(3-((3-morpholinoquinoxalin-6-yl)oxy)phenyl)urea] | 70 to 89% | > 89% |  | 70 to 89% |  | > 5 µM |  |
| O=C(Nc1cccc(Oc2ccc3ncc(N4CCOCC4)nc3c2)c1)Nc1ccc(Cl)c(C(F)(F)F)c1 [Compound C049, 1-(4-chloro-3-(trifluoromethyl)phenyl)-3-(3-((3-morpholinoquinoxalin-6-yl)oxy)phenyl)urea] | 70 to 89% | 70 to 89% |  | > 89% |  | 2 to 5 µM |  |
| O=C(Nc1ccc(F)c(F)c1)Nc1ccc(F)c(Oc2ccc3ncc(N4CCOCC4)nc3c2)c1 [Compound C052, 1-(3,4-difluorophenyl)-3-(4-fluoro-3-((3-morpholinoquinoxalin-6-yl)oxy)phenyl)urea] | 70 to 89% | > 89% | 1 to 5 µM | 70 to 89% |  |  |  |
| O=C(Nc1ccc(F)cc1)Nc1ccc(F)c(Oc2ccc3ncc(N4CCNCC4)nc3c2)c1 [Compound C060, 1-(4-fluoro-3-((3-(piperazin-1-yl)quinoxalin-6-yl)oxy)phenyl)-3-(4-fluorophenyl)urea] | > 89% | > 89% |  | > 89% |  | 2 to 5 µM |  |
| O=C(Nc1ccc(F)c(F)c1)Nc1ccc(F)c(Oc2ccc3ncc(N4CCNCC4)nc3c2)c1 [Compound C061, 1-(3,4-difluorophenyl)-3-(4-fluoro-3-((3-(piperazin-1-yl)quinoxalin-6-yl)oxy)phenyl)urea] | > 89% | > 89% |  | 70 to 89% |  | > 5 µM |  |
| O=C(Nc1cc(F)cc(F)c1)Nc1ccc(F)c(Oc2ccc3ncc(N4CCNCC4)nc3c2)c1 [Compound C062, 1-(3,5-difluorophenyl)-3-(4-fluoro-3-((3-(piperazin-1-yl)quinoxalin-6-yl)oxy)phenyl)urea] | > 89% | > 89% |  | 70 to 89% |  | 2 to 5 µM |  |
| O=C(Nc1ccc(Cl)cc1)Nc1ccc(F)c(Oc2ccc3ncc(N4CCNCC4)nc3c2)c1 [Compound C064, 1-(4-chlorophenyl)-3-(4-fluoro-3-((3-(piperazin-1-yl)quinoxalin-6-yl)oxy)phenyl)urea] | > 89% | > 89% |  | > 89% |  | 2 to 5 µM |  |
| O=C(Nc1cccc(C(F)(F)F)c1)Nc1ccc(F)c(Oc2ccc3ncc(N4CCNCC4)nc3c2)c1 [Compound C065, 1-(4-fluoro-3-((3-(piperazin-1-yl)quinoxalin-6-yl)oxy)phenyl)-3-(3-(trifluoromethyl)phenyl)urea] | > 89% | > 89% |  | > 89% |  | 2 to 5 µM |  |
| O=C(Nc1ccc(Oc2ccc3nccnc3c2)cc1)Nc1cccc(F)c1 [Compound C074, 1-(3-fluorophenyl)-3-(4-(quinoxalin-6-yloxy)phenyl)urea] | < 70% | 70 to 89% | 1 to 5 µM |  |  | 2 to 5 µM |  |
| O=C(Nc1ccc(F)cc1)Nc1ccc(Oc2ccc3nccnc3c2)cc1F [Compound C094, 1-(2-fluoro-4-(quinoxalin-6-yloxy)phenyl)-3-(4-fluorophenyl)urea] | 70 to 89% | > 89% | > 5 µM |  |  |  |  |
| O=C(Nc1ccc(Cl)cc1)Nc1ccc(Oc2ccc3nccnc3c2)cc1F [Compound C096, 1-(4-chlorophenyl)-3-(2-fluoro-4-(quinoxalin-6-yloxy)phenyl)urea] | < 70% | > 89% | > 5 µM |  |  |  |  |

Other lines, results leading:

| inhibition at 1 µM (BRAF) | inhibition at 1 µM (BRAF V600E) | IC50 (A375 cells) | inhibition at 1 µM (KDR (VEGFR2)) | IC50 (BRAF V600E) | IC50 (A549 cells) | IC50 (KDR (VEGFR2)) | Structure (SMILES) |
| --- | --- | --- | --- | --- | --- | --- | --- |
| > 89% | > 89% |  | > 89% |  | 2 to 5 µM |  | O=C(Nc1cccc(Oc2ccc3ncc(N4CCNCC4)nc3c2)c1)Nc1cccc(C(F)(F)F)c1 [Compound C040, 1-(3-((3-(piperazin-1-yl)quinoxalin-6-yl)oxy)phenyl)-3-(3-(trifluoromethyl)phenyl)urea] |
| > 89% | > 89% |  | > 89% |  | < 2 µM |  | O=C(Nc1cccc(Oc2ccc3ncc(N4CCNCC4)nc3c2)c1)Nc1ccc(Cl)c(C(F)(F)F)c1 [Compound C041, 1-(4-chloro-3-(trifluoromethyl)phenyl)-3-(3-((3-(piperazin-1-yl)quinoxalin-6-yl)oxy)phenyl)urea] |
| > 89% | > 89% |  | > 89% |  | 2 to 5 µM |  | O=C(Nc1cccc(Cl)c1)Nc1cccc(Oc2ccc3ncc(N4CCNCC4)nc3c2)c1 [Compound C050, 1-(3-chlorophenyl)-3-(3-((3-(piperazin-1-yl)quinoxalin-6-yl)oxy)phenyl)urea] |
| > 89% | > 89% |  | > 89% |  | 2 to 5 µM |  | O=C(Nc1ccc(Cl)cc1)Nc1cccc(Oc2ccc3ncc(N4CCNCC4)nc3c2)c1 [Compound C051, 1-(4-chlorophenyl)-3-(3-((3-(piperazin-1-yl)quinoxalin-6-yl)oxy)phenyl)urea] |
| > 89% | > 89% |  | 70 to 89% |  | 2 to 5 µM |  | O=C(Nc1cccc(F)c1)Nc1ccc(F)c(Oc2ccc3ncc(N4CCNCC4)nc3c2)c1 [Compound C059, 1-(4-fluoro-3-((3-(piperazin-1-yl)quinoxalin-6-yl)oxy)phenyl)-3-(3-fluorophenyl)urea] |
| > 89% | > 89% |  | > 89% |  | 2 to 5 µM |  | O=C(Nc1cccc(Cl)c1)Nc1ccc(F)c(Oc2ccc3ncc(N4CCNCC4)nc3c2)c1 [Compound C063, 1-(3-chlorophenyl)-3-(4-fluoro-3-((3-(piperazin-1-yl)quinoxalin-6-yl)oxy)phenyl)urea] |
| > 89% | > 89% |  | > 89% |  | < 2 µM |  | O=C(Nc1ccc(F)c(Cl)c1)Nc1ccc(F)c(Oc2ccc3ncc(N4CCNCC4)nc3c2)c1 [Compound C067, 1-(3-chloro-4-fluorophenyl)-3-(4-fluoro-3-((3-(piperazin-1-yl)quinoxalin-6-yl)oxy)phenyl)urea] |
| > 89% | > 89% |  | 70 to 89% |  | < 2 µM |  | O=C(Nc1ccc(Cl)c(F)c1)Nc1ccc(F)c(Oc2ccc3ncc(N4CCNCC4)nc3c2)c1 [Compound C068, 1-(4-chloro-3-fluorophenyl)-3-(4-fluoro-3-((3-(piperazin-1-yl)quinoxalin-6-yl)oxy)phenyl)urea] |
| < 70% | > 89% |  | > 89% |  | > 5 µM |  | O=C(Nc1ccc(Oc2ccc3ncc(N4CCOCC4)nc3c2)cc1)Nc1cccc(Cl)c1 [Compound C081, 1-(3-chlorophenyl)-3-(4-((3-morpholinoquinoxalin-6-yl)oxy)phenyl)urea] |
